# Like-named read-outs stand apart in the source and are kept apart here. Marks after values point to notes of the source that are not given here.
# System: human osteosarcoma DM113
# Format: in vivo
# Method: The resultant solution contains 10 mg/mL of cabazitaxel. Stock solution of cabazitaxel was then diluted in 0.9% sodium chloride.
# This efficacy may be quantified, for example, as changes in tumor volume for each treated (T) and control (C) group, which are calculated for each animal and each day by subtracting the tumor volume on the day of first treatment (staging day) from the tumor volume on the specified observation day. This allows calculating the tumor growth inhibition: ΔT/ΔC=(median delta T/median delta C)×100. Individual tumor volume changes from baseline are thereafter analyzed by a non-parametric two-way ANOVA-TYPE (with factors: group and repeated days) followed by a post-hoc contrasts analysis, with Bonferroni-Holm adjustment for multiplicity, comparing all treated groups to the control group. […] A probability less than 5% (p<0.05) was considered as significant.
# Based on the National Cancer Institute (NCl) standards, a ΔT/ΔC≦40% is the minimal level required to declare activity.
# This efficacy may also be quantified by the number of tumor regressions observed after therapy. Individual mice reporting a tumor volume ≦50% of the Day 0 measurement for two consecutive measurements over a seven day period were considered partial responders (PR). Individual mice lacking palpable tumors (<4×4 mm^2 for two consecutive measurements over a seven day period) were classified as complete responders (CR); a CR that persisted until study completion was considered a tumor-free survivor (TFS).
# Efficacy could also be determined at study completion, using tumor growth delay (T-C) in days, which is calculated using the median time to endpoint (MTTE) value for each treatment (T) group versus control (C). A Log Rank multiple comparison test with Bonferroni-Holm adjustment for multiplicity was applied on individual TTE to compare the treated groups to the control group.
# The animals subjected to the experiment are subcutaneously grafted unilaterally with approximately 30 mg of a tumor fragment from low passage pediatric patient-derived tumor xenografts. The animals are implanted with a human patient-derived pediatric tumor xenografted in immuno-compromised mice (Harlan; nu/nu). Several days post tumor implantation, mice are randomized according to their tumor burden to the different groups of treatments and controls. The agents are dosed intravenously at 5.8, 9.3, 15 or 24.2 mg/kg every 4 days for a total of 3 doses (q4d×3) to mice bearing a tumor burden at start of therapy (day 0) ranged from 125 to 250 mm^3.
# Beginning Day 0, animals were observed daily and weighed twice weekly using a digital scale; data including individual and mean gram weights (Mean We±SD), mean percent weight change versus Day 0 were recorded for each group. Animal deaths were recorded daily and designated as drug-related (D), technical (T), tumor related (B), or unknown (U) based on weight loss and gross observation; single agent or combination groups reporting a mean >20% for a period of 7 days and/or >10% mortality were considered above the maximum tolerated dose (MTD) for that treatment on the evaluated regimen.
# The selected tumor model, DM113, was a low passage patient-derived tumor xenograft derived from an osteosarcoma taken from the lung of a patient.
# The following end points were used: • Toxicity was declared at dosages inducing ≧20% body weight loss or ≧10% drug death; • Antitumor efficacy was determined by calculating the ΔT/ΔC value in percent on day 28 post treatment initiation, according to the above mentioned formula; • Individual tumor volume changes from baseline were analyzed by a non-parametric two-way ANOVA-TYPE (with factors: group and repeated day from 3 to 28) followed by a post-hoc contrasts analysis, with Bonferroni-Holm adjustment for multiplicity, comparing all treated groups to the control group on day 28. […] The volume endpoint for T-C calculations was chosen to be 1600 mm^3.
# [1] = 5.8 mg/kg i.v./q4dx3, volume endpoint 1600 mm^3
# [2] = 9.3 mg/kg i.v./q4dx3, volume endpoint 1600 mm^3
# [3] = 15 mg/kg i.v./q4dx3, volume endpoint 1600 mm^3
# [4] = 24.2 mg/kg i.v./q4dx3, volume endpoint 1600 mm^3
compound,measurement,setting,value
"CC(=O)O[C@@]12CO[C@@H]1C[C@H](O)[C@@]1(C)C(=O)[C@H](O)C3=C(C)[C@@H](OC(=O)[C@H](O)[C@@H](NC(=O)OC(C)(C)C)c4ccccc4)C[C@@](O)([C@@H](OC(=O)c4ccccc4)[C@H]21)C3(C)C [Docetaxel, docetaxel]",#CR,5.8 mg/kg i.v./q4dx3,0/0/0
same,#PR,5.8 mg/kg i.v./q4dx3,0/0/0
same,#TFS,5.8 mg/kg i.v./q4dx3,0/0/0
same,Drug Deaths Total,5.8 mg/kg i.v./q4dx3,0
same,Weight Nadir %,5.8 mg/kg i.v./q4dx3,−2%
same,Weight Nadir Day,5.8 mg/kg i.v./q4dx3,3
same,Tumor Volume Data (Day 28) Median,"5.8 mg/kg i.v./q4dx3, day 28",598 mm^3
same,ΔT/ΔC %,"5.8 mg/kg i.v./q4dx3, day 28",42.9%
same,MTTE,[1],41 days
same,T-C,[1],9 days
same,ΔT/ΔC,"5.8 mg/kg q4d×3 IV, day 28",42.9%
same,tumor growth delay (T-C),"5.8 mg/kg q4d×3 IV, volume endpoint 1600 mm^3",9 days
same,"tumor volume changes from baseline, Median +/− MAD","5.8 mg/kg, DAY 3",22.5 +/− 22.5
same,"tumor volume changes from baseline, Median +/− MAD","5.8 mg/kg, DAY 8",95 +/− 22.5
same,"tumor volume changes from baseline, Median +/− MAD","5.8 mg/kg, DAY 11",117.5 +/− 45
same,"tumor volume changes from baseline, Median +/− MAD","5.8 mg/kg, DAY 14",189 +/− 60.5
same,"tumor volume changes from baseline, Median +/− MAD","5.8 mg/kg, DAY 17",242.5 +/− 110
same,"tumor volume changes from baseline, Median +/− MAD","5.8 mg/kg, DAY 21",278.5 +/− 142
same,"tumor volume changes from baseline, Median +/− MAD","5.8 mg/kg, DAY 24",435 +/− 159
same,"tumor volume changes from baseline, Median +/− MAD","5.8 mg/kg, DAY 28",487 +/− 231.5
same,"tumor volume changes from baseline, Median +/− MAD","5.8 mg/kg, DAY 31",598 +/− 204
same,"tumor volume changes from baseline, Median +/− MAD","5.8 mg/kg, DAY 35",813 +/− 367
same,"tumor volume changes from baseline, Median +/− MAD","5.8 mg/kg, DAY 38",960 +/− 388
same,"tumor volume changes from baseline, Median +/− MAD","5.8 mg/kg, DAY 42",1032 +/− 326
same,"tumor volume changes from baseline, Median +/− MAD","5.8 mg/kg, DAY 46",1340 +/− 384
same,#CR,9.3 mg/kg i.v./q4dx3,0
same,#PR,9.3 mg/kg i.v./q4dx3,1
same,#TFS,9.3 mg/kg i.v./q4dx3,0
same,Drug Deaths Total,9.3 mg/kg i.v./q4dx3,0*
same,Weight Nadir %,9.3 mg/kg i.v./q4dx3,−3%
same,Weight Nadir Day,9.3 mg/kg i.v./q4dx3,17
same,Tumor Volume Data (Day 28) Median,"9.3 mg/kg i.v./q4dx3, day 28",442 mm^3
same,ΔT/ΔC %,"9.3 mg/kg i.v./q4dx3, day 28",27.4%
same,MTTE,[2],49 days
same,T-C,[2],17 days
same,"tumor volume changes from baseline, Median +/− MAD","9.3 mg/kg, DAY 3",56.5 +/− 26.5
same,"tumor volume changes from baseline, Median +/− MAD","9.3 mg/kg, DAY 8",85.5 +/− 27
same,"tumor volume changes from baseline, Median +/− MAD","9.3 mg/kg, DAY 11",73 +/− 42.5
same,"tumor volume changes from baseline, Median +/− MAD","9.3 mg/kg, DAY 14",85.5 +/− 34.5
same,"tumor volume changes from baseline, Median +/− MAD","9.3 mg/kg, DAY 17",117.5 +/− 51.5
same,"tumor volume changes from baseline, Median +/− MAD","9.3 mg/kg, DAY 21",140.5 +/− 52
same,"tumor volume changes from baseline, Median +/− MAD","9.3 mg/kg, DAY 24",239 +/− 94.5
same,"tumor volume changes from baseline, Median +/− MAD","9.3 mg/kg, DAY 28",311 +/− 75.5
same,"tumor volume changes from baseline, Median +/− MAD","9.3 mg/kg, DAY 31",390 +/− 90.5
same,"tumor volume changes from baseline, Median +/− MAD","9.3 mg/kg, DAY 35",545 +/− 52
same,"tumor volume changes from baseline, Median +/− MAD","9.3 mg/kg, DAY 38",677 +/− 118
same,"tumor volume changes from baseline, Median +/− MAD","9.3 mg/kg, DAY 42",827.5 +/− 293.5
same,"tumor volume changes from baseline, Median +/− MAD","9.3 mg/kg, DAY 46",1187 +/− 347.5
same,#CR,15 mg/kg i.v./q4dx3,0/0/0
same,#PR,15 mg/kg i.v./q4dx3,0/0/0
same,#TFS,15 mg/kg i.v./q4dx3,0/0/0
same,Drug Deaths Total,15 mg/kg i.v./q4dx3,0
same,Weight Nadir %,15 mg/kg i.v./q4dx3,−8%
same,Weight Nadir Day,15 mg/kg i.v./q4dx3,17
same,Tumor Volume Data (Day 28) Median,"15 mg/kg i.v./q4dx3, day 28",178 mm^3
same,ΔT/ΔC %,"15 mg/kg i.v./q4dx3, day 28",3.2%
same,MTTE,[3],>59 days
same,T-C,[3],>28 days
same,numbers of PR,15 mg/kg q4d×3 IV,0/10
same,"tumor volume changes from baseline, Median +/− MAD","15 mg/kg, DAY 3",26 +/− 26
same,"tumor volume changes from baseline, Median +/− MAD","15 mg/kg, DAY 8",26 +/− 26
same,"tumor volume changes from baseline, Median +/− MAD","15 mg/kg, DAY 11",13 +/− 16.5
same,"tumor volume changes from baseline, Median +/− MAD","15 mg/kg, DAY 14",13 +/− 16.5
same,"tumor volume changes from baseline, Median +/− MAD","15 mg/kg, DAY 17",13 +/− 16.5
same,"tumor volume changes from baseline, Median +/− MAD","15 mg/kg, DAY 21",0 +/− 19
same,"tumor volume changes from baseline, Median +/− MAD","15 mg/kg, DAY 24",22.5 +/− 23.5
same,"tumor volume changes from baseline, Median +/− MAD","15 mg/kg, DAY 28",36.5 +/− 35.5
same,"tumor volume changes from baseline, Median +/− MAD","15 mg/kg, DAY 31",42.5 +/− 29.5
same,"tumor volume changes from baseline, Median +/− MAD","15 mg/kg, DAY 35",61 +/− 61
same,"tumor volume changes from baseline, Median +/− MAD","15 mg/kg, DAY 38",61 +/− 81
same,"tumor volume changes from baseline, Median +/− MAD","15 mg/kg, DAY 42",107 +/− 90
same,"tumor volume changes from baseline, Median +/− MAD","15 mg/kg, DAY 46",155 +/− 153
same,#CR,24.2 mg/kg i.v./q4dx3,0
same,#PR,24.2 mg/kg i.v./q4dx3,1
same,#TFS,24.2 mg/kg i.v./q4dx3,0
same,Drug Deaths Total,24.2 mg/kg i.v./q4dx3,0
same,Weight Nadir %,24.2 mg/kg i.v./q4dx3,−13%
same,Weight Nadir Day,24.2 mg/kg i.v./q4dx3,17
same,ΔT/ΔC %,"24.2 mg/kg i.v./q4dx3, day 28",0%
same,MTTE,[4],>59 days
same,T-C,[4],>28 days
same,numbers of PR,24.2 mg/kg q4d×3 IV,1/10
same,"tumor volume changes from baseline, Median +/− MAD","24.2 mg/kg, DAY 3",29.5 +/− 13.5
same,"tumor volume changes from baseline, Median +/− MAD","24.2 mg/kg, DAY 8",22.5 +/− 22.5
same,"tumor volume changes from baseline, Median +/− MAD","24.2 mg/kg, DAY 11",0 +/− 22
same,"tumor volume changes from baseline, Median +/− MAD","24.2 mg/kg, DAY 14",−9.5 +/− 35
same,"tumor volume changes from baseline, Median +/− MAD","24.2 mg/kg, DAY 17",−9.5 +/− 26
same,"tumor volume changes from baseline, Median +/− MAD","24.2 mg/kg, DAY 21",−9.5 +/− 26
same,"tumor volume changes from baseline, Median +/− MAD","24.2 mg/kg, DAY 24",0 +/− 0
same,"tumor volume changes from baseline, Median +/− MAD","24.2 mg/kg, DAY 28",0 +/− 9.5
same,"tumor volume changes from baseline, Median +/− MAD","24.2 mg/kg, DAY 31",0 +/− 9.5
same,"tumor volume changes from baseline, Median +/− MAD","24.2 mg/kg, DAY 35",0 +/− 9.5
same,"tumor volume changes from baseline, Median +/− MAD","24.2 mg/kg, DAY 38",0 +/− 9.5
same,"tumor volume changes from baseline, Median +/− MAD","24.2 mg/kg, DAY 42",0 +/− 9.5
same,"tumor volume changes from baseline, Median +/− MAD","24.2 mg/kg, DAY 46",50.5 +/− 47.5
